These results are taken from US20260376293A1, “METHODS FOR STUDYING GPR158 PHARMACOLOGY AND IDENTIFICATION OF ITS LIGANDS” (UNIVERSITY OF FLORIDA RESEARCH FOUNDATION, INCORPORATED, priority 2022, published 2026).

SMILES strings stand for the structures.

Assay [1] has as its system GPR158 R173A, E271A, and Y269A mutants. As to the kind of experiment: GAP BRET assay on GPR158 mutants defective in glycine binding. The class given is cell-based, human. The text has this:
FIGS. 11A-11G. Probing Cache domain of GPR158 as a ligand binding site A) Computational docking of glycine into putative ligand binding pocket on GPR158 Cache domain. Glycine and directly interacting residues are shown as sticks. Hydrogen bonds and van der Waals interactions are shown as dotted lines. B) Diagram showing interactions in the docked model of glycine against GPR158 Cache domain. Hydrogen bonds are shown as dashed lines, van der Waals interactions are shown as intersecting semicircles, and the secondary structural context of Ser266 and Tyr269 is shown as an arc. Dagger indicates a residue implicated in glycine binding in 11A. […] Error bars are mean±s.e.m. of 3 independent experiments in triplicate. *p<0.05, **p<0.01, ***p<0.001, ****p<0.0001, ns=p>0.05, two-way ANOVA Columns with no fill (Ctrl), columns with angled-line fill (Glycine) E) Quantification of glycine inhibitory effect on kGAP normalized to the effect seen with WT receptor. […]
Cellular measurements of BRET between Venus-Gβ1γ2 and masGRK3ct-Nluc were performed to examine GAP activity of RGS protein in living cells (described in detail in Masuho et al., 2015 (40)). […] The BRET signal was determined by calculating the ratio of the light emitted by the Venus-Gβ1γ2 (535 nm with a 30 nm band path width) over the light emitted by the masGRK3ct-Nluc (475 nm with a 30 nm band path width). […]
(In BRET a luciferase serves as donor, and the signal depends on an acceptor being close.)

In assay [2] the test system is stress-induced depressive rat. To be noted: cited from earlier work.

With `NCC(=O)O` [glycine], the “glycine inhibition of GAP activity of RGS7/Gβ5” value in assay [1] is given as “lost an ability to inhibit the GAP-activity of RGS7/Gβ5”.

For `NCCS(=O)(=O)O` [taurine, 2-aminoethanesulfonic acid], the antidepressant effect result in assay [2] is “antidepressant effect”.
